One substance from paper PMC3062711 (Biochimica et biophysica acta, 2010) can be followed below.

For the experiment, the target named is human TRPA1 channel (hTRPA1) (Homo sapiens, UniProt O75762). As to the kind of experiment: inside-out patch clamp recording, hTRPA1 expressed in HEK293T cells. It is filed as cell-based. On the technique in general: The patch-clamp technique gives a direct electrical read-out from membranes.
Chain of human TRPA1 channel (hTRPA1) (O75762 whole entry): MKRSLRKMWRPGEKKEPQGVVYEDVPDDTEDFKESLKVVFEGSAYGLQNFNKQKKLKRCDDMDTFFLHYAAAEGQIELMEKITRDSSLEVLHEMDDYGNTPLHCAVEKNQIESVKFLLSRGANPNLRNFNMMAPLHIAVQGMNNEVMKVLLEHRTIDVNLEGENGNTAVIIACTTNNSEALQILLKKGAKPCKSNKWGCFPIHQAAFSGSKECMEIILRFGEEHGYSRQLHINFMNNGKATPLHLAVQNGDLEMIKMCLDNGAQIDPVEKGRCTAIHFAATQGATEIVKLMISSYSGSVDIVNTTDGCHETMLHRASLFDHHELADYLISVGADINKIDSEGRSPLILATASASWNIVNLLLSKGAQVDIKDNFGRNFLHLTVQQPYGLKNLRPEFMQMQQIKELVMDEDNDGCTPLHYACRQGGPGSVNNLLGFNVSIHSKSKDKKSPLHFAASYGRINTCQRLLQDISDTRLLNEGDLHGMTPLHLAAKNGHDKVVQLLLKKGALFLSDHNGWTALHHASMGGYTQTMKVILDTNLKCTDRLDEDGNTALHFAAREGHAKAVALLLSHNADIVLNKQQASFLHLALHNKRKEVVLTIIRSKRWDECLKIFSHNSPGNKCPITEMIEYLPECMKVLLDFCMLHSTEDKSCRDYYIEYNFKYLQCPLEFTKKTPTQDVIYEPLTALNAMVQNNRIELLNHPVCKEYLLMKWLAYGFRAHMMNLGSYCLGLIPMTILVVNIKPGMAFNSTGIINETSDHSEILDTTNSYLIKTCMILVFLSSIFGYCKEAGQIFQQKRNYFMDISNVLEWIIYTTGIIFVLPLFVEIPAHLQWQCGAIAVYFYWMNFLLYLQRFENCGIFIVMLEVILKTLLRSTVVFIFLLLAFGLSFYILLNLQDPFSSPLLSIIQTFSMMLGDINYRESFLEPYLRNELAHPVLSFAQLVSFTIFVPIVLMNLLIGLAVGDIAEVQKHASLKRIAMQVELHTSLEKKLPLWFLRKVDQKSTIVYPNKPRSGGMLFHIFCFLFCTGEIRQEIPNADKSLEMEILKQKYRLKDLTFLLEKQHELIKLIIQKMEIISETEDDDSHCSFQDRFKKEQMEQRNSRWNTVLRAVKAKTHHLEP

The substance Ruthenium red [RR] came in with an IC50 of around 1800 nM.

The term IC50 denotes the concentration that inhibits the measured activity by half. A lower IC50 goes with inhibition by little substance.
